Measurements as given in paper PMC7265429, “Characterization of a new small-molecule inhibitor of HDAC6 in glioblastoma” (Cell Death & Disease, 2020).

Test system: GNS166 cells
Test: Microarray whole-transcriptome gene expression analysis
Format: cell-based, human
Settings: 5 µM SAHA vs DMSO
Protocol: Whole-transcriptome analysis was performed from 300 ng of RNA using HuGene-2_0-st-v1 expression array (Affymetrix), which covers 48,226 transcripts. Raw data were first checked for quality purposes through the Affymetrix® Expression Console™ Software v1.4.1 and TAC software v4.0. Then, data were normalized using the Robust Multi-array Average (RMA) and analyzed by Limma tool. Probesets with FDR-corrected p-values smaller than 0.05 were selected. Functional enrichment on Gene Ontology (GO) biological processes was performed on a smaller subset of the differentially expressed genes (corrected p-value < 0.001) by means of Broad Institute GSEA. […] The data that support this study have been deposited in NCBI´s Gene Expression Omnibus and are accessible through GEO series accession number GSE143887.

## O=C(CCCCCCC(=O)Nc1ccccc1)NO [SAHA, Suberoylanilide hydroxamic acid]
Transcript TC0400008424.hg.1
  logFC C4orf32: 1.313
Transcript TC0400008557.hg.1
  logFC USP53: 1.38
Transcript TC0400008628.hg.1
  logFC SPRY1: 1.671
Transcript TC0400008725.hg.1
  logFC PCDH10: 3.614
Transcript TC0400009068.hg.1
  logFC LRAT: 2.43
Transcript TC0400009088.hg.1
  logFC GUCY1B3: 2.131
Transcript TC0400009110.hg.1
  logFC GRIA2: 2.789
Transcript TC0400009376.hg.1
  logFC WDR17: 2.897
Transcript TC0400010449.hg.1
  logFC TLR10: 2.282
Transcript TC0400010618.hg.1
  logFC TEC: 1.822
Transcript TC0400010780.hg.1
  logFC SPINK2: 1.664
Transcript TC0400011130.hg.1
  logFC PAQR3: 1.64
Transcript TC0400011203.hg.1
  logFC HPSE: 1.993
Transcript TC0400011279.hg.1
  logFC ABCG2: 2.81
Transcript TC0400011732.hg.1
  logFC NDNF: 1.962
Transcript TC0400012375.hg.1
  logFC CBR4: 2.0355
Transcript TC0400012640.hg.1
  logFC CCDC110: 2.964
Transcript TC0400012781.hg.1
  logFC STIM2: 2.698
Transcript TC0400012782.hg.1
  logFC STIM2: 1.4133
Transcript TC0400012854.hg.1
  logFC TMEM144: 1.56
Transcript TC0400012992.hg.1
  logFC MFAP3L: 1.287
Transcript TC0500006744.hg.1
  logFC ROPN1L: 1.559
Transcript TC0500007044.hg.1
  logFC CDH6: 1.462
Transcript TC0500007792.hg.1
  logFC HEXB: 1.236
Transcript TC0500008055.hg.1
  logFC ADGRV1: 1.802
Transcript TC0500008233.hg.1
  logFC C5orf30: 1.583
Transcript TC0500010822.hg.1
  logFC ACTBL2: 3.506
Transcript TC0500010932.hg.1
  logFC SGTB: 1.8638
Transcript TC0500011418.hg.1
  logFC MEF2C: 3.2962
Transcript TC0500011513.hg.1
  logFC PCSK1: 2.7195
Transcript TC0500011579.hg.1
  logFC ST8SIA4: 2.463
Transcript TC0500011705.hg.1
  logFC NREP: 1.704
Transcript TC0500011775.hg.1
  logFC SEMA6A: 1.39
Transcript TC0500011935.hg.1
  logFC MARCH3: 1.4429
Transcript TC0500013155.hg.1
  logFC BASP1: 2.0101
Transcript TC0600006873.hg.1
  logFC BMP6: 2.494
Transcript TC0600007012.hg.1
  logFC CD83: 1.54
Transcript TC0600008166.hg.1
  logFC SLC25A27: 2.967
Transcript TC0600008262.hg.1
  logFC TMEM14A: 1.194
Transcript TC0600008486.hg.1
  logFC OGFRL1: 1.1708
Transcript TC0600009353.hg.1
  logFC TPD52L1: 1.7761
Transcript TC0600011065.hg.1
  logFC KIAA0319: 1.327
Transcript TC0600012059.hg.1
  logFC GSTA4: 1.152
Transcript TC0600012379.hg.1
  logFC ELOVL4: 1.597
Transcript TC0600012625.hg.1
  logFC GPR63: 1.5628
Transcript TC0600013186.hg.1
  logFC CTGF: 1.2152
Transcript TC0600013231.hg.1
  logFC SGK1: 2.01
Transcript TC0600013361.hg.1
  logFC CITED2: 1.453
Transcript TC0600014101.hg.1
  logFC MICA: 1.308
Transcript TC0600014241.hg.1
  logFC TBC1D7: 1.745
Transcript TC0600014300.hg.1
  logFC GCLC: 1.594
Transcript TC0700006735.hg.1
  logFC SCIN: 1.966
Transcript TC0700006783.hg.1
  logFC TSPAN13: 2.267
Transcript TC0700008261.hg.1
  logFC RUNDC3B: 2.108
Transcript TC0700008367.hg.1
  logFC PEG10: 1.87
Transcript TC0700008430.hg.1
  logFC SDHAF3: 2.085
Transcript TC0700008928.hg.1
  logFC CPED1: 1.813
Transcript TC0700010621.hg.1
  logFC FKBP14: 1.44
Transcript TC0700010965.hg.1
  logFC IGFBP3: 3.673
Transcript TC0700011655.hg.1
  logFC PCLO: 1.736
Transcript TC0700011809.hg.1
  logFC TFPI2: 1.387
Transcript TC0700012276.hg.1
  logFC DOCK4: 2.262
Transcript TC0700013050.hg.1
  logFC KCNH2: 1.762
Transcript TC0800007057.hg.1
  logFC DOCK5: 2.096
Transcript TC0800007697.hg.1
  logFC CHCHD7: 1.373
Transcript TC0800007985.hg.1
  logFC GDAP1: 1.791
Transcript TC0800008044.hg.1
  logFC STMN2: 3.942
Transcript TC0800008124.hg.1
  logFC CA3: 3.677
Transcript TC0800008126.hg.1
  logFC CA2: 1.801
Transcript TC0800009891.hg.1
  logFC STC1: 3.859
Transcript TC0800010045.hg.1
  logFC TEX15: 3.073
Transcript TC0800010224.hg.1
  logFC ZMAT4: 2.513
Transcript TC0800011620.hg.1
  logFC ENPP2: 1.943
Transcript TC0800012396.hg.1
  logFC FBXO16: 1.919
Transcript TC0900006522.hg.1
  logFC SLC1A1: 1.427
Transcript TC0900006559.hg.1
  logFC CD274: 1.67
Transcript TC0900008425.hg.1
  logFC ZNF483: 1.1693
Transcript TC0900009145.hg.1
  logFC OLFM1: 2.218
Transcript TC0900009673.hg.1
  logFC MLLT3: 1.64
Transcript TC0900010445.hg.1
  logFC NMRK1: 1.539
Transcript TC0900010737.hg.1
  logFC DIRAS2: 1.619
Transcript TC0900010933.hg.1
  logFC CTSV: 2.165
Transcript TC0900011379.hg.1
  logFC MEGF9: 1.37
Transcript TC1000007714.hg.1
  logFC PHYHIPL: 2.12
Transcript TC1000008798.hg.1
  logFC SFR1: 1.8477
Transcript TC1000009920.hg.1
  logFC VIM-AS1: 1.211
Transcript TC1000010827.hg.1
  logFC DNAJC12: 2.378
Transcript TC1000011420.hg.1
  logFC CPEB3: 1.535
Transcript TC1000012536.hg.1
  logFC MPP7: 1.855
